Test results from patent US20100266504A1, “CONDENSED PYRIDINE DERIVATIVE AND USE THEREOF” (priority 2007, published 2010).
Counter-ions that a name gives are not always drawn. Like-named read-outs stand apart in the source and are kept apart here.

Experiments:
[1] = target: serotonin 5-HT2C receptor (isoform type VSV, stably expressing CHO cell) (Homo sapiens, UniProt P28335, I156V/I160V/N158S); test: cell-based; conditions: for Emax: CHO, read-out: ratio relative to maximum response by 5-HT (1 μM); for ratio relative to maximum response by 5-HT (1 μM): hydrochloride
serotonin 5-HT2C receptor (isoform type VSV, stably expressing CHO cell), sequence (P28335 33-458 I156V/N158S/I160V limits assumed): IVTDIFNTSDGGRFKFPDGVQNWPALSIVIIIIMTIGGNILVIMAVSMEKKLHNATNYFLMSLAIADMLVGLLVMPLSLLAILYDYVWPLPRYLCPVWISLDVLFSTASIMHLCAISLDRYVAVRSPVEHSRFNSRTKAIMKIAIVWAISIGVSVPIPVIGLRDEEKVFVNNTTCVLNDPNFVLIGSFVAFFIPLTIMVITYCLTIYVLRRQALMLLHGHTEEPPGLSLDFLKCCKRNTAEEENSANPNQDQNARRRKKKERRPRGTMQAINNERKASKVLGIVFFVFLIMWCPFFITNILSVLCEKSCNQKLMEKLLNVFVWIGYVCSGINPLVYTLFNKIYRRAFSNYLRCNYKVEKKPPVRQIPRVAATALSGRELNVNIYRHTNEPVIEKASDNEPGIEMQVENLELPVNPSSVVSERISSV

[2] = test system: spinal cord-transected female rats under urethane anesthesia; test: leak point pressure by high speed infusion method, serotonin 5-HT2C receptor agonists (Experimental Example 3); conditions: for change of leak point pressure (cmH2O): i.v., mean ± SEM; for effect on leak point pressure (in words): intravenous administration
Procedure: SD female rats (body weight 180-350 g) were anesthetized with urethane (Wako Pure Chemical Industries, Ltd.), and the spinal cord was cut at T8-9 level to eliminate the micturition reflex. During the operation, halothane (Takeda Pharmaceutical Company Limited) anesthesia was added as necessary. The rats were fixed at a dorsal position, and two catheters (PE-100; Clay Adams) were indwelled in the bladder. One of the catheters was filled with saline stained with Evans Blue dye (Merck), and connected to a 50 ml syringe (TERUMO CORPORATION) fixed on an infusion pump (KD Scientific) via a three-way cock. The other catheter was connected to a pressure transducer (DX-100; NIHON KOHDEN CORPORATION), and signals of the transducer were transmitted to computer via an amplifier (blood pressure amplification unit AP-641G; NIHON KOHDEN CORPORATION) and a data analyzer (BIOPAC; MP100), and recorded on a hard disk. The data was analyzed on the computer using a software (BIOPAC; AcqKnowledge). Saline was injected into the bladder using the infusion pump at a rate of 360 ml/hr, infusion was stopped on the moment fluid leakage from the urethral meatus was observed, and the solution in the bladder was discharged by opening the three-way cock. The maximum intravesical pressure during infusion was taken as a leak point pressure, which was measured repeatedly until the value was stabilized, and the average value of the last three measures was taken as the data. […] All the drugs were dissolved in DMA/PEG400 (1:1) and intravenously administered at 0.5 ml/kg.

[3] = test system: spinal cord transected female rats whose hypogastric nerve and pudendal nerves were bilaterally cut; test: urethral closure response induced by increased intravesical pressure (Experimental Example 5); conditions: for urethral closure response (cmH2O) after drug administration: i.v., 10 min after administration; for urethral closure response (cmH2O) after drug administration / urethral closure response (cmH2O) before drug administration: mean ± SEM, n=5; for urethral closure response (cmH2O) before drug administration: i.v. group; for effect on urethral closure response induced by increased intravesical pressure (in words): intravenous administration
Procedure: Female SD rats (body weight 200-310 g) were anesthetized with urethane (Wako Pure Chemical Industries, Ltd.), and the spinal cord was transected at T8-9 level to eliminate the micturition reflex. During the operation, halothane (Takeda Pharmaceutical Company Limited) anesthesia was added when necessary. After abdominal section, bladder neck was ligated with a suture thread, and then the hypogastric nerve and pudendal nerve were bilaterally transected. A catheter (PE-90, Clay Adams) was placed in the bladder, and the other end of the bladder catheter was connected to a pressure transducer and a water reservoir (60 ml syringe) of saline via a three-way cock. A microtip transducer catheter (SPR-524, Millar Instruments Inc.) was inserted toward the bladder from the urethral orifice, and adjusted using a scale on the catheter surface so that the transducer part is positioned in the urethra at 10.0-15.0 mm from the urethral orifice.
The changes in the topical pressure within the urinary tract (hereinafter conveniently indicated as urethral pressure) as measured by the microtip transducer was transmitted to a computer via an amplifier (blood pressure amplification unit AP-641G; NIHON KOHDEN) and a data analyzer (MP-100; biopack; sampled at 500 Hz), and recorded on a hard disc. […] The reaction of the urinary tract induced by an increased intravesical pressure was measured 3 times, and the average of the last 2 measures was taken as the value before drug administration. The evaluation item was reflex urethral closure response, and the recorded values were subjected to smoothing process at 500 points to calculate an average urethral pressure per 1 sec, after which the value immediately before increase in the intravesical pressure was subtracted from the maximum value on increase in the intravesical pressure and taken as the urethral closure response. […] The drugs were all dissolved in N,N-dimethylformamide/polyethylene glycol 400 (1:1) and administered intravenously at a volume of 0.5 ml/kg.

[4] = test system: spinal cord-transected female rats under urethane anesthesia; conditions: before vs after administration
Procedure: SD female rats (body weight 180-350 g) were anesthetized with urethane (Wako Pure Chemical Industries, Ltd.), and the spinal cord was cut at T8-9 level to eliminate the micturition reflex. During the operation, halothane (Takeda Pharmaceutical Company Limited) anesthesia was added as necessary. The rats were fixed at a dorsal position, and two catheters (PE-100; Clay Adams) were indwelled in the bladder. One of the catheters was filled with saline stained with Evans Blue dye (Merck), and connected to a 50 ml syringe (TERUMO CORPORATION) fixed on an infusion pump (KD Scientific) via a three-way cock. The other catheter was connected to a pressure transducer (DX-100; NIHON KOHDEN CORPORATION), and signals of the transducer were transmitted to computer via an amplifier (blood pressure amplification unit AP-641G; NIHON KOHDEN CORPORATION) and a data analyzer (BIOPAC; MP100), and recorded on a hard disk. The data was analyzed on the computer using a software (BIOPAC; AcqKnowledge). Saline was injected into the bladder using the infusion pump at a rate of 360 ml/hr, infusion was stopped on the moment fluid leakage from the urethral meatus was observed, and the solution in the bladder was discharged by opening the three-way cock. The maximum intravesical pressure during infusion was taken as a leak point pressure.

How did the Emax [1] turn out when CC(C)c1ccc2c(n1)CCNC2 [Example 24, 2-Isopropyl-5,6,7,8-tetrahydro-1,6-naphthyridine hydrochloride] was run?
Its Emax is 101%.

How did the Emax [1] turn out when c1cc2c(nc1N1CCOCC1)CCNC2 [Example 6, 2-Morpholin-4-yl-5,6,7,8-tetrahydro-1,6-naphthyridine] was run?
Its Emax is 100%.

Which Emax [1] does the source give for CC(C)N(C)c1ccc2c(n1)CCNC2 [Example 17, N-Isopropyl-N-methyl-5,6,7,8-tetrahydro-1,6-naphthyridin-2-amine hydrochloride] here?
Its Emax is 100%.

For CC1CNCc2ccc(N3CCOCC3)nc21 (centres unmarked) [Example 5, 8-Methyl-2-morpholin-4-yl-5,6,7,8-tetrahydro-1,6-naphthyridine dihydrochloride], which Emax [1] is on record?
Its Emax is 101%.

Which “change of leak point pressure (cmH2O)” value ([2]; 0.1 mg/kg) does the source give for c1cc2c3c(c1)[C@H]1CCC[C@H]1N3CCNC2 [WAY-163909] here?
Its value is 4.4 ± 1.6 cmH2O.

What about the “change of leak point pressure (cmH2O)” value ([2]; 1 mg/kg) of the same compound?
The value was 12.9 ± 4.2 cmH2O.

What about the “change of leak point pressure (cmH2O)” value ([2]; 3 mg/kg) of the same compound?
The value was 30.1 ± 2.6 cmH2O.

And the “effect on leak point pressure (in words)” value [2]?
The value was “increased the leak point pressure in a dose-dependent manner”.

And the “urethral closure response (cmH2O) after drug administration” value ([3]; 3 mg/kg)?
The value was 10.2 ± 1.6 cmH2O.

And the “urethral closure response (cmH2O) before drug administration” value ([3]; baseline of the 3 mg/kg)?
The value was 4.4 ± 0.8 cmH2O.

And the “effect on urethral closure response induced by increased intravesical pressure (in words)” value [3]?
Its value is “enhanced the urethral closure response”.

For CC(Oc1ccc2c(n1)CCNC2)C1CC1 (centres unmarked) [Example 31, 2-(1-Cyclopropylethoxy)-5,6,7,8-tetrahydro-1,6-naphthyridine hydrochloride], which Emax [1] is on record?
The Emax was 88.4%.

How did the Emax [1] turn out when Fc1ccc(-c2ccc3c(n2)CCNC3)cc1 [Example 27, 2-(4-Fluorophenyl)-5,6,7,8-tetrahydro-1,6-naphthyridine dihydrochloride] was run?
The Emax was 91.7%.

C[C@H]1COCCN1c1ccc2c(n1)CCNC2 [Example 8, 2-[(3S)-3-Methylmorpholin-4-yl]-5,6,7,8-tetrahydro-1,6-naphthyridine hydrochloride] was tested. Which Emax [1] did it give?
The Emax was 90.8%.

Which results are given for CNCC[C@H](Oc1cccc2ccccc12)c1cccs1 [duloxetine]?
change of leak point pressure (cmH2O) ([4]; 1 mg/kg, i.v., mean ± SEM, n=5): 11.4 ± 2.4 cmH2O; effect on leak point pressure (in words) ([4]; intravenous administration): significantly increased the leak point pressure

CC1CNCc2ccc(N3CCOCC3)nc21 (single isomer, unassigned) [Example 73, (8R*)-8-Methyl-2-morpholin-4-yl-5,6,7,8-tetrahydro-1,6-naphthyridine hydrochloride] was tested. Which Emax [1] did it give?
Its Emax is 101%.

How did the “ratio relative to maximum response by 5-HT (1 μM)” value (from here on “ratio relative to maximum response”) [1] turn out when CC1CNCc2ccc(N(C)C(C)C)nc21 (single isomer, unassigned) [Example 80, (8S*)-N-Isopropyl-N,8-dimethyl-5,6,7,8-tetrahydro-1,6-naphthyridin-2-amine hydrochloride] was run?
Its value is 102.

How did the Emax [1] turn out when c1cc2c(nc1C1CC1)CCNC2 [Example 43, 2-Cyclopropyl-5,6,7,8-tetrahydro-1,6-naphthyridine hydrochloride] was run?
The Emax was 97%.

Which Emax [1] does the source give for CC(C)Oc1ccc2c(n1)CCNC2 [Example 30, 2-Isopropoxy-5,6,7,8-tetrahydro-1,6-naphthyridine hydrochloride] here?
The Emax was 97.8%.

For CC1CNCc2ccc(N3CCOC[C@H]3C)nc21 (stereo in doubt) [Example 75, (8R*)-8-Methyl-2-[(3R)-3-methylmorpholin-4-yl]-5,6,7,8-tetrahydro-1,6-naphthyridine hydrochloride], which Emax [1] is on record?
Its Emax is 103%.

C[C@H]1CNCCc2ccc(Cl)cc21 [APD-356] was tested. Which “change of leak point pressure (cmH2O)” value ([2]; 0.1 mg/kg) did it give?
Its value is 5.2 ± 2.6 cmH2O.

And the “change of leak point pressure (cmH2O)” value ([2]; 1 mg/kg)?
The value was 19.2 ± 3.1 cmH2O.

What about the “change of leak point pressure (cmH2O)” value ([2]; 3 mg/kg) of the same compound?
Its value is 28.9 ± 3.3 cmH2O.

And the “effect on leak point pressure (in words)” value [2]?
Its value is “increased the leak point pressure in a dose-dependent manner”.

What about the “urethral closure response (cmH2O) after drug administration” value ([3]; 1 mg/kg) of the same compound?
Its value is 8.6 ± 2.7 cmH2O.

What about the “urethral closure response (cmH2O) before drug administration” value ([3]; baseline of the 1 mg/kg) of the same compound?
The value was 5.3 ± 1.7 cmH2O.

And the “effect on urethral closure response induced by increased intravesical pressure (in words)” value [3]?
The value was “enhanced the urethral closure response”.

Which Emax [1] does the source give for CC1CNCc2ccc(-c3ccc(F)cc3)nc21 (centres unmarked) [Example 4, 2-(4-Fluorophenyl)-8-methyl-5,6,7,8-tetrahydro-1,6-naphthyridine hydrochloride] here?
The Emax was 101%.

With O=C1Nc2cc(Cl)c(Cl)cc2N2CCNCC12 (centres unmarked) [WAY-161503] as the compound, how does the “change of leak point pressure (cmH2O)” value ([2]; 0.03 mg/kg) read?
The value was 7.4 ± 3.8 cmH2O.

What about the “change of leak point pressure (cmH2O)” value ([2]; 0.3 mg/kg) of the same compound?
The value was 12.8 ± 1.0 cmH2O.

And the “effect on leak point pressure (in words)” value [2]?
The value was “increased the leak point pressure in a dose-dependent manner”.

How did the Emax [1] turn out when CC1CCNCc2ccc(N3CCOCC3)nc21 (centres unmarked) [Example 2, 9-Methyl-2-morpholin-4-yl-6,7,8,9-tetrahydro-5H-pyrido[3,2-c]azepine hydrochloride] was run?
The Emax was 92.8%.

With CC1CNCc2ccc(N(C)C(C)C)nc21 (single isomer, unassigned) [Example 79, (8R*)-N-Isopropyl-N,8-dimethyl-5,6,7,8-tetrahydro-1,6-naphthyridin-2-amine hydrochloride] as the compound, how does the Emax [1] read?
The Emax was 106%.

For c1cc(-c2ccc3c(n2)CCNC3)co1 [Example 26, 2-(3-Furyl)-5,6,7,8-tetrahydro-1,6-naphthyridine dihydrochloride], which Emax [1] is on record?
Its Emax is 98.2%.

With CCN(C)c1ccc2c(n1)CCNC2 [Example 15, N-Ethyl-N-methyl-5,6,7,8-tetrahydro-1,6-naphthyridin-2-amine hydrochloride] as the compound, how does the Emax [1] read?
The Emax was 102%.

How did the “ratio relative to maximum response” value [1] turn out when CC1CNCc2ccc(N3CCOCC3)nc21 (single isomer, unassigned) [Example 74, (8S*)-8-Methyl-2-morpholin-4-yl-5,6,7,8-tetrahydro-1,6-naphthyridine hydrochloride] was run?
The value was 103.

FC(F)(F)c1ccc(-c2ccc3c(n2)CCNC3)cc1 [Example 29, 2-[4-(Trifluoromethyl)phenyl]-5,6,7,8-tetrahydro-1,6-naphthyridine dihydrochloride] was tested. Which Emax [1] did it give?
The Emax was 97%.

Which Emax [1] does the source give for C[C@@H]1COCCN1c1ccc2c(n1)CCNC2 [Example 7, 2-[(3R)-3-Methylmorpholin-4-yl]-5,6,7,8-tetrahydro-1,6-naphthyridine hydrochloride] here?
Its Emax is 95.6%.

CSc1ccc(-c2ccc3c(n2)CCNC3)cc1 [Example 28, 2-[4-(Methylthio)phenyl]-5,6,7,8-tetrahydro-1,6-naphthyridine dihydrochloride] was tested. Which Emax [1] did it give?
Its Emax is 102%.

CC1CNCc2ccc(N3CCOC[C@H]3C)nc21 (stereo partly drawn) [Example 48, 8-Methyl-2-[(3R)-3-methylmorpholin-4-yl]-5,6,7,8-tetrahydro-1,6-naphthyridine hydrochloride] was tested. Which Emax [1] did it give?
Its Emax is 95.5%.

Which “ratio relative to maximum response” value [1] does the source give for CC1CNCc2ccc(N3CCOC[C@H]3C)nc21 (stereo in doubt) [Example 76, (8S*)-8-Methyl-2-[(3R)-3-methylmorpholin-4-yl]-5,6,7,8-tetrahydro-1,6-naphthyridine hydrochloride] here?
Its value is 105.

With c1cc2c(nc1N1CCOCC1)OCCNC2 [compound A, 8-morpholin-4-yl-2,3,4,5-tetrahydropyrido[3,2-f][1,4]oxazepine] as the compound, how does the “change of leak point pressure (cmH2O)” value ([2]; 0.1 mg/kg) read?
Its value is 8.4 ± 5.0 cmH2O.

And the “change of leak point pressure (cmH2O)” value ([2]; 1 mg/kg)?
The value was 10.3 ± 2.4 cmH2O.

And the “change of leak point pressure (cmH2O)” value ([2]; 3 mg/kg)?
Its value is 25.7 ± 8.7 cmH2O.

And the “effect on leak point pressure (in words)” value [2]?
Its value is “increased the leak point pressure in a dose-dependent manner”.

What about the “urethral closure response (cmH2O) after drug administration” value ([3]; 1 mg/kg) of the same compound?
Its value is 7.5 ± 1.6 cmH2O.

And the “urethral closure response (cmH2O) before drug administration” value ([3]; baseline of the 1 mg/kg)?
The value was 4.6 ± 0.8 cmH2O.

What about the “effect on urethral closure response induced by increased intravesical pressure (in words)” value [3] of the same compound?
The value was “enhanced the urethral closure response”.

How did the Emax [1] turn out when CC1CNCc2ccc(N(C)C(C)C)nc21 (centres unmarked) [Example 53, N-Isopropyl-N,8-dimethyl-5,6,7,8-tetrahydro-1,6-naphthyridin-2-amine hydrochloride] was run?
Its Emax is 91%.
